From the kinase profiling compilation of Christmann-Franck et al. (2016)

Key:
Test in all cases: KINOMEscan competition binding
Conditions in all cases: compound 10.0 µM
PAK1 (human) = PAK1 (human) (UniProt Q13153)
CAMK2G (human) = CAMK2G (human) (UniProt Q13555)
GSK3B (human) = GSK3B (human) (UniProt P49841)
MAP2K2 (human) = MAP2K2 (human) (UniProt P36507)
NEK9 (human) = NEK9 (human) (UniProt Q8TD19)
FGFR2 (human) = FGFR2 (human) (UniProt P21802)
EPHB2 (human) = EPHB2 (human) (UniProt P29323)
PAK2 (human) = PAK2 (human) (UniProt Q13177)
CSNK1G2 (human) = CSNK1G2 (human) (UniProt P78368)
AXL (human) = AXL (human) (UniProt P30530)
EPHA5 (human) = EPHA5 (human) (UniProt P54756)
NEK1 (human) = NEK1 (human) (UniProt Q96PY6)
MAP3K10 (human) = MAP3K10 (human) (UniProt Q02779)
[1] = test system: ABL1 (human), P00519 [H396P]
MAPKAPK2 (human) = MAPKAPK2 (human) (UniProt P49137)
RPS6KA2 KD1 (human) = RPS6KA2 KD1 (human) (UniProt Q15349)
CDC42BPA (human) = CDC42BPA (human) (UniProt Q5VT25)
NEK7 (human) = NEK7 (human) (UniProt Q8TDX7)
MARK3 (human) = MARK3 (human) (UniProt P27448)
CDK11A (human) = CDK11A (human) (UniProt Q9UQ88)
PAK4 (human) = PAK4 (human) (UniProt O96013)
TSSK1B (human) = TSSK1B (human) (UniProt Q9BXA7)
DDR2 (human) = DDR2 (human) (UniProt Q16832)
TLK2 (human) = TLK2 (human) (UniProt Q86UE8)
PIK3CA (human) = PIK3CA (human) (UniProt P42336)
NEK5 (human) = NEK5 (human) (UniProt Q6P3R8)
[2] = test system: EGFR (human), P00533 [752-759 del]
[3] = test system: EGFR (human), P00533 [L861Q]
FER (human) = FER (human) (UniProt P16591)
PRKACB (human) = PRKACB (human) (UniProt P22694)
MAP3K12 (human) = MAP3K12 (human) (UniProt Q12852)
CDK9 (human) = CDK9 (human) (UniProt P50750)
EPHA1 (human) = EPHA1 (human) (UniProt P21709)
WEE2 (human) = WEE2 (human) (UniProt P0C1S8)
MAP3K11 (human) = MAP3K11 (human) (UniProt Q16584)
ADCK4 (human) = ADCK4 (human) (UniProt Q96D53)
MARK1 (human) = MARK1 (human) (UniProt Q9P0L2)
PRKAA1 (human) = PRKAA1 (human) (UniProt Q13131)
EPHA6 (human) = EPHA6 (human) (UniProt Q9UF33)
YES1 (human) = YES1 (human) (UniProt P07947)
NTRK3 (human) = NTRK3 (human) (UniProt Q16288)
MYO3B (human) = MYO3B (human) (UniProt Q8WXR4)

Sequence of DDR2 (human) (Q16832 whole entry, looked up): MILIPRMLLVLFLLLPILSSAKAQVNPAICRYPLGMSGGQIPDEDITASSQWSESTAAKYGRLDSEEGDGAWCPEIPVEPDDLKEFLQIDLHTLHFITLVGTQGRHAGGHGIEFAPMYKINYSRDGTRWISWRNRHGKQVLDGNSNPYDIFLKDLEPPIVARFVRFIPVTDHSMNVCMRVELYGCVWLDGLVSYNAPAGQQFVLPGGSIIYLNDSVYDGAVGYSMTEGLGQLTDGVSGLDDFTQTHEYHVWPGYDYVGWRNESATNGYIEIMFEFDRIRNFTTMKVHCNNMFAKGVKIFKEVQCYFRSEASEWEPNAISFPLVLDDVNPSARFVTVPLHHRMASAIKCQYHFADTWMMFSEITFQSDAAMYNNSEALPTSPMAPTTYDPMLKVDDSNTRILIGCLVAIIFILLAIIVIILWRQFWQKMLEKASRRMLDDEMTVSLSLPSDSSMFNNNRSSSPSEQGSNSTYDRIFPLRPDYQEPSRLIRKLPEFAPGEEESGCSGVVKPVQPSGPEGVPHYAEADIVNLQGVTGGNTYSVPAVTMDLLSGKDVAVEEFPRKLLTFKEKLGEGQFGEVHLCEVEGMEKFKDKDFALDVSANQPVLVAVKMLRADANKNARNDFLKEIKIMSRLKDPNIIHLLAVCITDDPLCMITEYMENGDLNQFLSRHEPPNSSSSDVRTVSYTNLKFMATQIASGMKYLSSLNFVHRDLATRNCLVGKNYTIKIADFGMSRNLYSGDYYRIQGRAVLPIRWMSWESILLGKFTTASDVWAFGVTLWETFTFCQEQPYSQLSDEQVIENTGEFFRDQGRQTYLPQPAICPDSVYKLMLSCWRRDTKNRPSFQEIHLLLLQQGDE
Sequence of PAK4 (human) (O96013 whole entry, looked up): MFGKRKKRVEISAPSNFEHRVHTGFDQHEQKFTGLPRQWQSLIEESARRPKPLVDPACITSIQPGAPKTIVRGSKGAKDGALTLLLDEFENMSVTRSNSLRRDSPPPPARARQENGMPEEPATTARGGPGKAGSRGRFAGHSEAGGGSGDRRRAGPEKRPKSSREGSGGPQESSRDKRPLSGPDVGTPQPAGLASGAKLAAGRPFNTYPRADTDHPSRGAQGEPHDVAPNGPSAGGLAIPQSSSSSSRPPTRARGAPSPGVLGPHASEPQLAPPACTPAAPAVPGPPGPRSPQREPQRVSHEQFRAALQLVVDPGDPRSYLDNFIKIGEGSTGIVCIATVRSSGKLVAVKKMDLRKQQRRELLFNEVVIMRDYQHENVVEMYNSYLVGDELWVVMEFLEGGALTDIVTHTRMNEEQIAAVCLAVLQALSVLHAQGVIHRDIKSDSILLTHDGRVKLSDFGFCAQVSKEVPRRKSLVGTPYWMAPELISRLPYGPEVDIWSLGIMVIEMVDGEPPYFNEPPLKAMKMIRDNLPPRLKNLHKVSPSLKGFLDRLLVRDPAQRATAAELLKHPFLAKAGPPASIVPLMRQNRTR
Sequence of GSK3B (human) (P49841 whole entry, looked up): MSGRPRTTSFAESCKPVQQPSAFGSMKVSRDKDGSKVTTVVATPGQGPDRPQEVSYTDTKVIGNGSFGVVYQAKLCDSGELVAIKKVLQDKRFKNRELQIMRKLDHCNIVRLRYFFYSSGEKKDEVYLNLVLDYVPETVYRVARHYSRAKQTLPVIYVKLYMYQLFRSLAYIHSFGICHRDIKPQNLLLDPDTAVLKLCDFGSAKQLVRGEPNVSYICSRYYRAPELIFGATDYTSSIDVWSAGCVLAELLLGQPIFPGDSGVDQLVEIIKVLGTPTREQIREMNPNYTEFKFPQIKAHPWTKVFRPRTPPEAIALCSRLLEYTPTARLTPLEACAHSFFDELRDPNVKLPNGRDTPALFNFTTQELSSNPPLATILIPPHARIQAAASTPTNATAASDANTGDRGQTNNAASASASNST
Sequence of CDK9 (human) (P50750 whole entry, looked up): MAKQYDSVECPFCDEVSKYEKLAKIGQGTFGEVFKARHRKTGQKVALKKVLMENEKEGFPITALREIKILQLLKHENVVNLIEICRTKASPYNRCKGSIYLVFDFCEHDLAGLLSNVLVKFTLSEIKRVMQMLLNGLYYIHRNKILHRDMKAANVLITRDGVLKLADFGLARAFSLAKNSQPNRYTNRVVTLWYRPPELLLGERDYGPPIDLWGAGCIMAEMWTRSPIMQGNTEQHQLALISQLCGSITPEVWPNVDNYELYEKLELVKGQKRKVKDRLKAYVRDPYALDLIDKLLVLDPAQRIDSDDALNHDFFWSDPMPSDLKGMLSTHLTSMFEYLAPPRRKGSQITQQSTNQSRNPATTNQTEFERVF
Sequence of EPHB2 (human) (P29323 whole entry, looked up): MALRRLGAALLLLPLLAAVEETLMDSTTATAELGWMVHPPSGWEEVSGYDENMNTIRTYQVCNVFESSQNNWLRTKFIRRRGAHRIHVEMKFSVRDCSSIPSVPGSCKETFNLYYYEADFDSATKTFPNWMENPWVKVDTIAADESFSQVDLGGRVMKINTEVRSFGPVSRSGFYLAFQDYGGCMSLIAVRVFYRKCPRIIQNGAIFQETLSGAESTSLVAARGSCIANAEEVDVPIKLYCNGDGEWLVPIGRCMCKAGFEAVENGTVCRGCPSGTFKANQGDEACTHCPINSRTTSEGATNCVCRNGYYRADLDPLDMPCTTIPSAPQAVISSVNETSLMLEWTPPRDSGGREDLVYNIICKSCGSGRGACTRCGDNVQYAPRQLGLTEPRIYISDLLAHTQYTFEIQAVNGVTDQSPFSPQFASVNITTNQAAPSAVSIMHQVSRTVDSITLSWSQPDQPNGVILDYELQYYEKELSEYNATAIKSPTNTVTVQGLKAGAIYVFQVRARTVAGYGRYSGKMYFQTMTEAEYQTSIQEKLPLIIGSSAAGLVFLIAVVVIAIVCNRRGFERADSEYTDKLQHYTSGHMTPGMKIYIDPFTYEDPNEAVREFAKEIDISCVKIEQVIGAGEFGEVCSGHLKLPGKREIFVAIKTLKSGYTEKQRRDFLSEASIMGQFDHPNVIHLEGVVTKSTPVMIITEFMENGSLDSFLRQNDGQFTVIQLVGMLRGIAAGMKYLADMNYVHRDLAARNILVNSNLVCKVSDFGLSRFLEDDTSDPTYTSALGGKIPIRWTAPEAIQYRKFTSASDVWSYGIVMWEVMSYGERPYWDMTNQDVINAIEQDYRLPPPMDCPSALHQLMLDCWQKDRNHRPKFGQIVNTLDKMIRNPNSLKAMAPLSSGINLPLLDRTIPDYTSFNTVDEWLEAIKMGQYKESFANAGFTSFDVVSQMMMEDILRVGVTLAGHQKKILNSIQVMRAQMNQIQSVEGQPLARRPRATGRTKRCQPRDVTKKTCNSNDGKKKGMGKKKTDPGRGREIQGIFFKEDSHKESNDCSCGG
Sequence of PAK2 (human) (Q13177 whole entry, looked up): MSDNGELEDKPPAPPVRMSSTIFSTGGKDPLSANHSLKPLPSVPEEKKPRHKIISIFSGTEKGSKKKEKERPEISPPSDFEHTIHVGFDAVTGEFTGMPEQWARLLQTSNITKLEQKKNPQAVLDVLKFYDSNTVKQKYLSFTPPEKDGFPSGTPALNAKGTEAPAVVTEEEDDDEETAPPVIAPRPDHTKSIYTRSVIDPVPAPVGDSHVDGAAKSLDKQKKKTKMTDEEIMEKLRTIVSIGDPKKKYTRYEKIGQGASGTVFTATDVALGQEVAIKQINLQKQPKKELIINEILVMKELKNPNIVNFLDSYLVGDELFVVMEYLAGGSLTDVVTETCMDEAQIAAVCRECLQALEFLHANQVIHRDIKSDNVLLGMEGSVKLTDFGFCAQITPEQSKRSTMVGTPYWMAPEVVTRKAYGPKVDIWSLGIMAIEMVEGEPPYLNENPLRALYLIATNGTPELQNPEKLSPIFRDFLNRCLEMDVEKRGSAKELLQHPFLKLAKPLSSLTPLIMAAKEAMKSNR
Sequence of EPHA5 (human) (P54756 whole entry, looked up): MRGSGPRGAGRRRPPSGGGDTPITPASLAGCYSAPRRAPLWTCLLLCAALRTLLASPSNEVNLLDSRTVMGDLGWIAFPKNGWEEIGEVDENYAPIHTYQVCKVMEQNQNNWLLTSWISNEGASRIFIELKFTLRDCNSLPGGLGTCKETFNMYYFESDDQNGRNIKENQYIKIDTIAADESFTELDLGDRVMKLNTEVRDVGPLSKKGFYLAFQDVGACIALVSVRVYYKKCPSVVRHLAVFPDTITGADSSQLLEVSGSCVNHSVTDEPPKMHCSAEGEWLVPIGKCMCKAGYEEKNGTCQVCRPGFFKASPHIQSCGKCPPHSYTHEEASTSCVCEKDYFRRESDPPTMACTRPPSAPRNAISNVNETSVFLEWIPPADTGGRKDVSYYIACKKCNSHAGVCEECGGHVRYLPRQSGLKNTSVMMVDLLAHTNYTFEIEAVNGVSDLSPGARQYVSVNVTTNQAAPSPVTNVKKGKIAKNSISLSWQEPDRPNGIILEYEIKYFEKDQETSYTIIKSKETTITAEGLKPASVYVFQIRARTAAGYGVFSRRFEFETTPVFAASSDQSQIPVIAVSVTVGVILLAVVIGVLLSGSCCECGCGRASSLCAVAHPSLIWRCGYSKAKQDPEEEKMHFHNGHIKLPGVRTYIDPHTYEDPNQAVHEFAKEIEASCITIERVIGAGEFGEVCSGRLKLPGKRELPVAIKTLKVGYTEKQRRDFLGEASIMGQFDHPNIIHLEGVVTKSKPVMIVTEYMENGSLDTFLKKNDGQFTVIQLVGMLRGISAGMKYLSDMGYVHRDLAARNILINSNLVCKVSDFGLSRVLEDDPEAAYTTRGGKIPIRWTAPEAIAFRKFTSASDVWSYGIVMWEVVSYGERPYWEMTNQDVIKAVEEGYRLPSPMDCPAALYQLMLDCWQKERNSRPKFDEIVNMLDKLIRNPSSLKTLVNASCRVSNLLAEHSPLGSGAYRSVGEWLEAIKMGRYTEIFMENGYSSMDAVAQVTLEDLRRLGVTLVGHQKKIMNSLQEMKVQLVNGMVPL

COc1cc(N2CCN(C)CC2)ccc1Nc1ncc2c(n1)Nc1ccccc1NC2=O
kinase still bound, per cent of control (PAK1 (human)): 82% | kinase still bound, per cent of control (CAMK2G (human)): 100% | kinase still bound, per cent of control (GSK3B (human)): 53% | kinase still bound, per cent of control (MAP2K2 (human)): 95% | kinase still bound, per cent of control (NEK9 (human)): 87% | kinase still bound, per cent of control (FGFR2 (human)): 87% | kinase still bound, per cent of control (EPHB2 (human)): 82% | kinase still bound, per cent of control (PAK2 (human)): 80% | kinase still bound, per cent of control (CSNK1G2 (human)): 92% | kinase still bound, per cent of control (AXL (human)): 83% | kinase still bound, per cent of control (EPHA5 (human)): 90% | kinase still bound, per cent of control (NEK1 (human)): 95% | kinase still bound, per cent of control (MAP3K10 (human)): 100% | kinase still bound, per cent of control [1]: 21% | kinase still bound, per cent of control (MAPKAPK2 (human)): 96% | kinase still bound, per cent of control (RPS6KA2 KD1 (human)): 61% | kinase still bound, per cent of control (CDC42BPA (human)): 100% | kinase still bound, per cent of control (NEK7 (human)): 70% | kinase still bound, per cent of control (MARK3 (human)): 100% | kinase still bound, per cent of control (CDK11A (human)): 82% | kinase still bound, per cent of control (PAK4 (human)): 94% | kinase still bound, per cent of control (TSSK1B (human)): 64% | kinase still bound, per cent of control (DDR2 (human)): 100% | kinase still bound, per cent of control (TLK2 (human)): 100% | kinase still bound, per cent of control (PIK3CA (human)): 100% | kinase still bound, per cent of control (NEK5 (human)): 100% | kinase still bound, per cent of control [2]: 69% | kinase still bound, per cent of control [3]: 61% | kinase still bound, per cent of control (FER (human)): 100% | kinase still bound, per cent of control (PRKACB (human)): 100% | kinase still bound, per cent of control (MAP3K12 (human)): 100% | kinase still bound, per cent of control (CDK9 (human)): 100% | kinase still bound, per cent of control (EPHA1 (human)): 74% | kinase still bound, per cent of control (WEE2 (human)): 93% | kinase still bound, per cent of control (MAP3K11 (human)): 88% | kinase still bound, per cent of control (ADCK4 (human)): 84% | kinase still bound, per cent of control (MARK1 (human)): 100% | kinase still bound, per cent of control (PRKAA1 (human)): 87% | kinase still bound, per cent of control (EPHA6 (human)): 100% | kinase still bound, per cent of control (YES1 (human)): 68% | kinase still bound, per cent of control (NTRK3 (human)): 2.1% | kinase still bound, per cent of control (MYO3B (human)): 100%

O=C1NC(=O)/C(=C/c2c[nH]c(=O)c(-c3ccc(N4CCNCC4)nc3)c2)S1
kinase still bound, per cent of control (PAK1 (human)): 90% | kinase still bound, per cent of control (CAMK2G (human)): 65% | kinase still bound, per cent of control (GSK3B (human)): 53% | kinase still bound, per cent of control (MAP2K2 (human)): 15% | kinase still bound, per cent of control (NEK9 (human)): 71% | kinase still bound, per cent of control (FGFR2 (human)): 100% | kinase still bound, per cent of control (EPHB2 (human)): 71% | kinase still bound, per cent of control (PAK2 (human)): 53% | kinase still bound, per cent of control (CSNK1G2 (human)): 3.6% | kinase still bound, per cent of control (AXL (human)): 24% | kinase still bound, per cent of control (EPHA5 (human)): 100% | kinase still bound, per cent of control (NEK1 (human)): 73% | kinase still bound, per cent of control (MAP3K10 (human)): 100% | kinase still bound, per cent of control [1]: 96% | kinase still bound, per cent of control (MAPKAPK2 (human)): 100% | kinase still bound, per cent of control (RPS6KA2 KD1 (human)): 64% | kinase still bound, per cent of control (CDC42BPA (human)): 73% | kinase still bound, per cent of control (NEK7 (human)): 100% | kinase still bound, per cent of control (MARK3 (human)): 100% | kinase still bound, per cent of control (CDK11A (human)): 63% | kinase still bound, per cent of control (PAK4 (human)): 98% | kinase still bound, per cent of control (TSSK1B (human)): 2.9% | kinase still bound, per cent of control (DDR2 (human)): 100% | kinase still bound, per cent of control (TLK2 (human)): 99% | kinase still bound, per cent of control (PIK3CA (human)): 49% | kinase still bound, per cent of control (NEK5 (human)): 100% | kinase still bound, per cent of control [2]: 95% | kinase still bound, per cent of control [3]: 69% | kinase still bound, per cent of control (FER (human)): 100% | kinase still bound, per cent of control (PRKACB (human)): 100% | kinase still bound, per cent of control (MAP3K12 (human)): 76% | kinase still bound, per cent of control (CDK9 (human)): 100% | kinase still bound, per cent of control (EPHA1 (human)): 100% | kinase still bound, per cent of control (WEE2 (human)): 100% | kinase still bound, per cent of control (MAP3K11 (human)): 100% | kinase still bound, per cent of control (ADCK4 (human)): 80% | kinase still bound, per cent of control (MARK1 (human)): 100% | kinase still bound, per cent of control (PRKAA1 (human)): 59% | kinase still bound, per cent of control (EPHA6 (human)): 97% | kinase still bound, per cent of control (YES1 (human)): 97% | kinase still bound, per cent of control (NTRK3 (human)): 88% | kinase still bound, per cent of control (MYO3B (human)): 74%
